Experiments:
AD38 cells = experiment: Viability of AD38 cells (Promega CellTiter-Glo); assay type: cell-based; conditions: 10 μM compound, 6 days, CellTiter-Glo luminescence normalized to DMSO control (100%)
In short: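 AD38 cells were seeded at 50,000/well on collagen-coated plates and treated with compound added as a 10× solution in 10% DMSO for 6 days at 37° C. Viability was measured by CellTiter-Glo luminescence in tetracycline-free medium with 2% FBS and 1% DMSO, and expressed as percent of DMSO control.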

[1] = test system: HBV viral load in AD38 cells; experiment: Viral load production in AD38 cells, quantitative PCR of the core sequence in supernatant; assay type: cell-based; conditions: Hepatitis B virus, 144 h, 10 μM compound, 6 days at 37° C., supernatant qPCR, relative to DMSO control; read-out: AD38 Viral Load (%) (VL with cmpd/VL in DMSO control) at 10 μM

Row | SMILES | AD38 Viability Normalized Result (cmpd/DMSO %) at 10 μM (AD38 cells) | activity at 10 µM [1]
1 | CC(NC(=O)c1ccc2c(c1)NC(=O)c1ccccc1S2)c1cncs1 (racemic) [compound 1432, 11-oxo-N-(1-(thiazol-5-yl)ethyl)-10, 11-dihydrodibenzo [b, f] [1, 4] thiazepine-8-carboxamide] | 101% | 21.8%
2 | Cl.N=C(N)c1ccc(-c2ncc(CNC(=O)c3ccc4c(c3)NC(=O)c3ccccc3S4(=O)=O)s2)cc1 [compound 1653, N-((2-(4-carbamimidoylphenyl)thiazol-5-yl)methyl)-11-oxo-10, 11-dihydrodibenzo [b, f] [1, 4] thiazepine-8-carboxamide 5,5-dioxide hydrochloride] | 108% | 65.4%
3 | COc1ccnc(-c2ncc(CNC(=O)c3ccc4c(c3)NC(=O)c3ccccc3S4(=O)=O)s2)c1 [1880-A, N-((2-(4-methoxypyridin-2-yl)thiazol-5-yl)methyl)-11-oxo-10, 11-dihydrodibenzo [b, f] [1, 4] thiazepine-8-carboxamide 5,5-dioxide] | 124% | 0.7%
4 | CN(C)CCCSc1ccc(-c2ncc(CNC(=O)c3ccc4c(c3)NC(=O)c3ccccc3S4(=O)=O)s2)cc1 [compound 11006, N-((2-(4-((3-(dimethylamino)propyl)thio)phenyl)thiazol-5-yl)methyl)-11-oxo-10, 11-dihydrodibenzo [b, f] [1, 4] thiazepine-8-carboxamide 5,5-dioxide] | 97% | 1.3%
5 | O=C(NCc1cnc(N2CCS(=O)(=O)CC2)s1)c1ccc2c(c1)NC(=O)c1ccccc1O2 [compound 1866] | 98% | 2.9%
6 | O=C(NCc1cnc(-c2ccc(C(=O)NC3CC3)cc2)s1)c1ccc2c(c1)NC(=O)c1ccccc1S2(=O)=O [compound 1949] | 99% | 2.9%
7 | O=C(O)COc1ccc(-c2ncc(CNC(=O)c3ccc4c(c3)NC(=O)c3ccccc3S4)s2)cc1 [compound 1607, 2-(4-(5-((11-oxo-10, 11-dihydrodibenzo [b, f] [1, 4]thiazepine-8-carboxamido)methyl)thiazol-2-yl)phenoxy) acetic acid] | 98% | 52.8%
8 | Nc1ccc(-c2ncc(CNC(=O)c3ccc4c(c3)NC(=O)c3ccccc3S4(=O)=O)s2)cn1 [compound 1672] | 101% | 0.6%
9 | N#Cc1ccc(-c2ncc(CNC(=O)c3cc4c(cc3O)S(=O)(=O)c3ccccc3C(=O)N4)s2)cc1 [1901-B, N-((2-(4-cyanophenyl)thiazol-5-yl)methyl)-7-hydroxy-11-oxo-10, 11-dihydrodibenzo [b, f] [1, 4] thiazepine-8-carboxamide 5,5-dioxide] | 108% | 69.4%
10 | O=C(O)CSc1ncc(CNC(=O)c2ccc3c(c2)NC(=O)c2ccccc2S3)s1 [compound 1603, 2-((5-((11-oxo-10, 11-dihydrodibenzo [b, f] [1, 4]thiazepine-8-carboxamido)methyl)thiazol-2-yl)thio) acetic acid] | 108% | 32.8%
11 | O=C(NCc1cnc(-c2ccc3[nH]ccc3c2)s1)c1ccc2c(c1)NC(=O)c1ccccc1O2 [compound 1696] | 109% | 0.8%
12 | CC(C)(C)NC(=O)c1ccc(-c2ncc(CNC(=O)c3ccc4c(c3)NC(=O)c3ccccc3S4(=O)=O)s2)cc1 [compound 1947] | 101% | 2.3%
13 | O=C(NCc1cnc(-c2ccc(O)cc2Cl)s1)c1ccc2c(c1)NC(=O)c1ccccc1O2 [compound 1703] | 93% | 3.1%
14 | O=C(NCc1cnc(-c2ccc(N3CCCC3=O)cc2)s1)c1ccc2c(c1)NC(=O)c1ccccc1S2(=O)=O [compound 1858] | 103% | 0.7%
15 | CCN1c2ccc(C(=O)NCc3cnc(-c4ccc(C#N)cc4)s3)cc2NC(=O)c2ccccc21 [compound 1975] | 63% | 1%
16 | CCc1ncc(CNC(=O)c2ccc3c(c2)NC(=O)c2ccccc2O3)s1 [compound 1558] | 106% | 0.5%
17 | Cl.NCc1ccccc1-c1ncc(CNC(=O)c2ccc3c(c2)NC(=O)c2ccccc2S3(=O)=O)s1 [compound 1841, N-((2-(2-(aminomethyl)phenyl)thiazol-5-yl)methyl)-11-oxo-10, 11-dihydrodibenzo [b, f] [1, 4] thiazepine-8-carboxamide 5,5-dioxide hydrochloride] | 104% | 9.1%

Row | SMILES | AD38 Viability Normalized Result (cmpd/DMSO %) at 10 μM (AD38 cells) | activity at 10 µM [1]
18 | O=C(NCc1cnc(-c2cc(F)ccn2)s1)c1ccc2c(c1)NC(=O)c1ccccc1S2(=O)=O [compound 11050] | 96% | 0.7%
19 | COc1ccc(-c2ncc(CNC(=O)c3ccc4c(c3)NC(=O)c3ccccc3S4(=O)=O)s2)cc1C [1804-A, N-((2-(4-methoxy-3-methylphenyl)thiazol-5-yl)methyl)-11-oxo-10, 11-dihydrodibenzo [b, f] [1, 4] thiazepine-8-carboxamide 5,5-dioxide] | 90% | 6.6%
20 | O=C(NCc1cnc(N2CCCCC(O)C2)s1)c1ccc2c(c1)NC(=O)c1ccccc1S2(=O)=O (stereo not drawn) [compound 1908] | 94% | 7%
21 | O=C(O)COc1ncc(CNC(=O)c2ccc3c(c2)NC(=O)c2ccccc2S3(=O)=O)s1 [compound 1580, 2-((5-((5,5-dioxido-11-oxo-10, 11-dihydrodibenzo [b, f] [1, 4]thiazepine-8-carboxamido)methyl)thiazol-2-yl)oxy) acetic acid] | 102% | 104%
22 | CC(C)CN1c2ccc(C(=O)NCc3cnc(-c4ccc(C#N)cc4F)s3)cc2NC(=O)c2ccccc21 [compound 11044] | 124% | 5.1%
23 | O=C(NCc1cnc(N2C[C@H](O)CC[C@@H](O)C2)s1)c1ccc2c(c1)NC(=O)c1ccccc1S2(=O)=O [compound 1972] | 100% | 23.5%
24 | Nc1ccc(-c2ncc(CNC(=O)c3ccc4c(c3)NC(=O)c3ccccc3S4(=O)=O)s2)cc1 [1645-B, N-((2-(4-aminophenyl)thiazol-5-yl)methyl)-11-oxo-10, 11-dihydrodibenzo [b, f] [1, 4] thiazepine-8-carboxamide 5,5-dioxide] | 100% | 77.8%
25 | CC(C)(C)NCCCOc1ccc(-c2ncc(CNC(=O)c3ccc4c(c3)NC(=O)c3ccccc3S4(=O)=O)s2)cc1 [compound 1990, N-((2-(4-(3-(tert-butylamino)propoxy)phenyl)thiazol-5-yl)methyl)-11-oxo-10, 11-dihydrodibenzo [b, f] [1, 4] thiazepine-8-carboxamide 5,5-dioxide] | 98% | 4.1%
26 | O=C1CCN(c2ncc(CNC(=O)c3ccc4c(c3)NC(=O)c3ccccc3S4(=O)=O)s2)CCN1 [compound 1973] | 100% | 33.7%
27 | Cl.O=C(NCc1cnc(-c2ccc(OCCC3CCCN3)cc2)s1)c1ccc2c(c1)NC(=O)c1ccccc1S2(=O)=O (stereo not drawn) [compound 1996, 11-oxo-N-((2-(4-(2-(pyrrolidin-2-yl)ethoxy)phenyl)thiazol-5-yl)methyl)-10, 11-dihydrodibenzo [b, f] [1, 4] thiazepine-8-carboxamide 5,5-dioxide hydrochloride] | 100% | 17.4%
28 | N#Cc1ccc(-c2ncc(CNC(=O)c3ccc4c(c3Cl)NC(=O)c3ccccc3S4(=O)=O)s2)c(F)c1 [compound 11083] | 62% | 0.8%
29 | Cc1c(C(=O)NCc2cnc(-c3ccc(OCCCN(C)C)cc3)s2)ccc2c1NC(=O)c1ccccc1S2 [C20-01] | 98% | 1.5%
30 | CN(C)CCCOc1ncc(CN(C)C(=O)c2ccc3c(c2)NC(=O)c2ccccc2O3)s1 [compound 1687, N-((2-(3-(dimethylamino)propoxy)thiazol-5-yl)methyl)-N-methyl-11-oxo-10, 11-dihydrodibenzo [b, f] [1, 4] oxazepine-8-carboxamide] | 102% | 49.2%
31 | COc1cc2c(cc1C(=O)NCc1cnc(-c3ccc(C#N)cc3)s1)NC(=O)c1ccccc1S2(=O)=O [1901-A, N-((2-(4-cyanophenyl)thiazol-5-yl)methyl)-7-methoxy-11-oxo-10, 11-dihydrodibenzo [b, f] [1, 4] thiazepine-8-carboxamide 5,5-dioxide] | 118% | 3%
32 | Cl.NCCCCc1ccc(-c2ncc(CNC(=O)c3ccc4c(c3)NC(=O)c3ccccc3S4(=O)=O)s2)cc1 [compound 11004, N-((2-(4-(4-aminobutyl)phenyl)thiazol-5-yl)methyl)-11-oxo-10, 11-dihydrodibenzo [b, f] [1, 4] thiazepine-8-carboxamide 5,5-dioxide hydrochloride salt] | 94% | 5.5%
33 | O=C(NCc1cnc(-c2ccc([N+](=O)[O-])cc2)s1)c1ccc2c(c1)NC(=O)c1ccccc1S2(=O)=O [1645-A] | 98% | 0.3%
